Measured values published in paper PMC7395068, “The evolution of strategies to minimise the risk of human drug-induced liver injury (DILI) in drug discovery and development” (Archives of Toxicology, 2020).
Like-named read-outs stand apart in the source and are kept apart here.

Assays:
[1] = Plasma free fraction (fu) and unbound Cmax (Cmax,u); type: in vitro ADME, human; conditions: unbound plasma Cmax
Protocol: The prediction of DILI severity was evaluated further using the 3D combined HCI assays using plasma-free fraction. The majority of fu values were obtained from literature, when unavailable in-house prediction was utilised. Unbound plasma Cmax concentrations (Cmax,u) were derived by multiplying total plasma Cmax with the corresponding free fraction (fu) for each compound.

[2] = test system: HepG2; set-up: method as in Albrecht 2019; conditions: In vitro Assay; ref Albrecht 2019; cited from earlier work
[3] = test system: HepG2 cells; conditions: Structural based (HCI), HepG2; ref O'Brien et al. 2006; cited from earlier work
[4] = test system: HepG2 cells; conditions: cited from earlier work
[5] = test system: HepG2 cells; conditions: cited from earlier work; remark: listed apart in the source
[6] = test system: THLE or HepG2 cells, isolated mitochondria, BSEP; conditions: cited from earlier work
[7] = test system: PHH; conditions: cited from earlier work
[8] = test system: hLiMTs; conditions: cited from earlier work
[9] = test system: HepG2 C3A spheroid, BSEP, Glu/Gal in HepG2 cells, bioactivation; conditions: cited from earlier work
[10] = read-out: Human plasma Cmax; total plasma Cmax.tot, median of 9 literature references; cited from earlier work
[11] = plasma free fraction; cited from earlier work
[12] = cited from earlier work
[13] = test system: PHH; conditions: In vitro Assay; ref Albrecht 2019; cited from earlier work
[14] = test system: isolated mouse liver mitochondria; conditions: In vitro Assay; ref Porceddu 2012; cited from earlier work
[15] = test system: hLiMTs; experiment: Combined HCI (HCS) and cellular ATP 3D assay in hLiMTs; conditions: for AC50 / minimal effective concentration: Homo sapiens
[16] = test system: HepaRG spheroids; experiment: Combined HCI (HCS) and cellular ATP 3D assay in HepaRG spheroids
[17] = In vitro Assay, ref Persson 2013
[18] = Modeled in vitro assays (cytotoxicity, mitochondrial dysfunction, BSEP), ref Aleo et al. 2019
[19] = In vitro Assay, ref Proctor 2017
[20] = Microtissue model structural based (HCI), combined HCS and ATP, MEC < 25 × Cmax.tot cut-off

SMILES: CC(=O)Oc1ccccc1C(=O)O [acetylsalicylic acid]
- Human plasma Cmax,u [1]: 538.224 µM
- Cytotoxicity HepG2 48 hrs [2]: +VE
- DILI in vitro assay prediction, O'Brien (2006) [3]: +VE (lowest HCI endpoint IC50 (or in the absence of dose–response < 100 µM) < 30 × total human plasma exposure levels (Cmax.tot))
- Cluser analysis [4, 17]: -VE
- Structural based (HCI) [4, 17]: -VE
- DILI in vitro assay prediction, Persson (2013) ([4]; Structural based (HCI), HepG2, ref Persson et al. 2013): -VE
- Structural based (HCI) ([5]; In vitro Assay, ref Tolosa 2012): +VE
- DILI in vitro assay prediction, Tolosa (2012) ([5]; Structural based (HCI), HepG2, ref Tolosa et al. 2012): +VE
- Partition Hybrid HRM Score ([6]; In vitro Assay, ref Aleo 2019): -VE
- Ro2 Hybrid HRM Score ([6]; In vitro Assay, ref Aleo 2019): -VE
- Partition Hybrid HRM Score ≥4, Aleo (2019) [6, 18]: -VE
- Partition Hybrid HRM Score ≥8, Aleo (2019) [6, 18]: -VE
- Rule of Two hybrid HRM Score ≥3, Aleo (2019) [6, 18]: -VE
- Rule of Two hybrid HRM Score ≥8, Aleo (2019) [6, 18]: -VE
- PHH/100xCmax, Proctor (2017) ([7]; 2D PHH, ATP, IC50 < 100 × Cmax.tot, ref Proctor et al. 2017): -VE
- PHH/100uM, Proctor (2017) ([7]; 2D PHH, ATP, IC50 threshold 100 µM, ref Proctor et al. 2017): -VE
- PHH ATP <100uM [7, 19]: -VE
- hLiMTs ATP <100uM [8, 19]: -VE
- hLiMTs/100xCmax, Proctor (2017) ([8]; hLiMTs, ATP, IC50 < 100 × Cmax.tot, ref Proctor et al. 2017): -VE
- hLiMTs/100uM, Proctor (2017) ([8]; hLiMTs, ATP, IC50 threshold 100 µM, ref Proctor et al. 2017): -VE
- Bayesian Machine Learning DILI prediction, Williams (2019) ([9]; Bayesian modeling, ref Williams et al. 2019): -VE
- Bayesian Machine Learning ([9]; In vitro Assay, ref Williams 2019): -VE
- Cmax [10]: 1380 µM
- fu [11]: 0.390
- Assigned DILI category ([12]; Chen et al. 2016 or literature alignment, ref Chen et al. 2016): 3
- In vivo DILI ([12]; […]): -VE
- In vivo DILI ([12]; ref Albrecht 2019): +VE
- In vivo DILI ([12]; ref Aleo 2019): +VE
- In vivo DILI ([12]; ref Persson 2013): +VE
- In vivo DILI ([12]; ref Porceddu 2012): +VE
- In vivo DILI ([12]; ref Proctor 2017): +VE
- In vivo DILI ([12]; ref Tolosa 2012): +VE
- In vivo DILI ([12]; ref Williams 2019): +VE
- Cytotoxicity PHH 48 hrs [13]: +VE
- in vitro data EC2<=1x Cmax [14]: +VE
- in vitro data EC20<=2uM [14]: -VE
- AC50 ([15]; read-out: ATP endpoint AC50): 3.25 mM
- minimal effective concentration ([15]; read-out: ATP endpoint MEC): 2270 µM
- AC50 ([15]; read-out: HCS endpoint AC50): 4.69 mM
- minimal effective concentration ([15]; read-out: HCS endpoint MEC): 1930 µM
- DILI prediction hLiMTs (HCS-MEC) [15, 20]: +VE (MEC < 25 × Cmax.tot cut-off)
- hLiMTs <25x Avg Cmax ATP ([15]; hLiMTs, ATP endpoint, cut-off <25x Avg Cmax): +ve
- hLiMTs <100x Avg Cmaxu ATP ([15]; hLiMTs, ATP endpoint, cut-off <100x Avg Cmaxu): +ve (<100x Avg Cmaxu)
- hLiMTs <25x Avg Cmax HCS ([15]; hLiMTs, HCS endpoints, cut-off <25x Avg Cmax): +ve
- hLiMTs <100x Avg Cmaxu HCS ([15]; hLiMTs, HCS endpoints, cut-off <100x Avg Cmaxu): +ve (<100x Avg Cmaxu)
- hLiMTs <25x Avg Cmax All ([15]; hLiMTs, all endpoints (ATP and HCS), cut-off <25x Avg Cmax): +ve
- hLiMTs Cmax max All ([15]; hLiMTs, all endpoints, Cmax max used): +ve
- hLiMTs Cmax min All ([15]; hLiMTs, all endpoints, Cmax min used): +ve
- hLiMTs <10 uM All ([15]; hLiMTs, all endpoints, cut-off <10 uM): -ve
- hLiMTs <100x Avg Cmaxu All ([15]; hLiMTs, all endpoints, cut-off <100x Avg Cmaxu): +ve (<100x Avg Cmaxu)
- HepaRG <25x Avg Cmax ATP ([16]; HepaRG, ATP endpoint, cut-off <25x Avg Cmax): +ve
- HepaRG <100x Avg Cmaxu ATP ([16]; HepaRG, ATP endpoint, cut-off <100x Avg Cmaxu): +ve (<100x Avg Cmaxu)
- HepaRG <25x Avg Cmax HCS ([16]; HepaRG, HCS endpoints, cut-off <25x Avg Cmax): +ve
- HepaRG <100x Avg Cmaxu HCS ([16]; HepaRG, HCS endpoints, cut-off <100x Avg Cmaxu): +ve (<100x Avg Cmaxu)
- HepaRG <25x Avg Cmax All ([16]; HepaRG, all endpoints (ATP and HCS), cut-off <25x Avg Cmax): +ve
- HepaRG Cmax max All ([16]; HepaRG, all endpoints, Cmax max used): +ve
- HepaRG Cmax min All ([16]; HepaRG, all endpoints, Cmax min used): +ve
- HepaRG <10 uM All ([16]; HepaRG, all endpoints, cut-off <10 uM): -ve
- HepaRG <100x Avg Cmaxu All ([16]; HepaRG, all endpoints, cut-off <100x Avg Cmaxu): +ve (<100x Avg Cmaxu)
- AC50 ([16]; Homo sapiens, HepaRG, read-out: ATP endpoint AC50): 1.63 mM
- minimal effective concentration ([16]; Homo sapiens, HepaRG, read-out: ATP endpoint MEC): 659 µM
- minimal effective concentration ([16]; Homo sapiens, HepaRG, read-out: HCS endpoint MEC): 1340 µM
- DILI prediction HepaRG spheroids (HCS-MEC) [16, 20]: +VE (MEC < 25 × Cmax.tot cut-off)
